# Publication PMC10418426, “A Comprehensive Technology Platform for the Rapid Discovery of Peptide Inhibitors against SARS-CoV-2 Pseudovirus Infection” (International Journal of Molecular Sciences, 2023)
# Starred links: 1 amine or outer side, 2 acyl side, 3 side chain; linkers in the order of their positions; H or OH if unused. Positions of bridges follow the written chain, without caps; N, C: chain ends. Residues, ends and D or L forms follow the SMILES beside them. mXylylene = c1cc(C[*:1])cc(C[*:2])c1
# Test system: HEK293-ACE2 cells
# Conditions: 1 to 100 μM, 24 h treatment plus 24 h in fresh medium, absorbance 560 nm
compound,measurement,value
C[C@@H](O)[C@@H]1NC(=O)[C@@H]2CCCN2C(=O)[C@H](CCC(N)=O)NC(=O)[C@@H](N)CSCc2cccc(c2)CSC[C@@H](C(N)=O)NC(=O)[C@H](CCC(N)=O)NC(=O)[C@H](Cc2c[nH]c3ccccc23)NC(=O)CNC(=O)[C@H](CCCCN)NC(=O)CNC(=O)[C@H](CC(N)=O)NC1=O [c9_05] (H-CQPTNGKGWQC-NH2; linker 1-11 via mXylylene),effect on cell viability (MTT),did not cause any significant decrease in cell viability
